Where a name gives a salt, the structure may show the parent alone.
Legend:
[1] = molecular target: Adrenergic alpha2C (Homo sapiens, UniProt P18825); test: Adrenergic alpha2C binding
From the text: (§1) Further, the compounds of the invention may be tested in binding assays and functional activity assays by well known methods for other physiologically important receptors such as, but not limited to, the hERG channel, other serotonin receptors (specifically 5-HT1A, 5-HT1B, 5-HT1D, 5-HT1E, 5-HT1F receptors, lack of agonist activity at 5-HT2B receptors, 5-HT2C, 5-HT4, 5-HTS, 5-HT6, and 5-HT7 receptors), muscarinic receptors, dopaminergic receptors (specifically D1, D2, and D3), GABAA receptors, adrenergic receptors and monoamine transporters. Certain exemplified compounds are tested at these receptors and are shown to lack significant activity.

[2] = system: Wistar rats; test: Sleep and behavioral monitoring in rats (EEG, EMG, motion); assay type: in vivo; conditions: rat; for Rebound Insomnia, Adj. Mean: NREM + REM sleep in 7th-9th hours post-treatment; for Rebound Insomnia, Adj. Mean / REM inhibition, Adj. Mean / Cumulative NREM sleep, Adj. Mean / Cumulative Total sleep, Adj. Mean / Locomotor Activity Intensity, Adj. Mean: difference from vehicle; for REM inhibition, Adj. Mean: REM sleep in first 12 hours post-treatment; for Cumulative NREM sleep, Adj. Mean / Cumulative Total sleep, Adj. Mean / Locomotor Activity Intensity, Adj. Mean / Average Sleep Bout, Adj. Mean / Longest Sleep Bout, Adj. Mean: first 6 hours post-treatment; for Average Sleep Bout, Adj. Mean / Longest Sleep Bout, Adj. Mean: n-fold increase over vehicle controls
Method: Sleep and behavioral monitoring in rats: Representative compounds of the present invention are tested in rats for their ability to increase the amount of sleep or decrease sleep interruption or both without undesired effects such as inhibition of REM sleep, waking motor impairment, and/or rebound insomnia. Test animals are continuously monitored by electro-encephalograms (EEG), electromyograms (EMG), and motion to measure cumulative nonREM sleep, cumulative total sleep, average sleep bout duration, longest sleep bout duration, rebound insomnia, REM sleep inhibition and locomotor activity intensity during wakefulness. Methods for such studies are known in the art (see for example methods described in Edgar D M, Seidel W F. Modafinil induces wakefulness without intensifying motor activity or subsequent rebound hypersomnolence in the rat. J Pharmacology & Experimental Therapeutics 1997; 283: 757-769; van Gelder R N, Edgar D M, Dement W C. Real-time automated sleep scoring: validation of a microcomputer-based system for mice. Sleep 1991, 14: 48-55; and Gross B A, Walsh C M, Turakhia A A, Booth V, Mashour G A, Poe G R. Open-source logic-based automated sleep scoring software using electrophysiological recordings in rats. J Neurosci Methods. 2009; 184(1):10-8.) Studies are conducted as follows: Animal preparation. Adult, male Wistar rats (approximately 270-300 g at time of surgery) are surgically fitted for chronic recording of EEG, EMG, and motion as follows: Rats are surgically prepared with a cranial implant consisting of four stainless steel screws for EEG recording (two frontal [3.9 mm anterior from bregma, and ±2.0 mm mediolaterally] and two occipital [6.4 mm posterior from bregma, ±5.5 mm mediolaterally]), and with two Teflon-coated stainless steel wires for EMG recording (positioned under the nuchal trapezoid muscles). All leads are soldered to a miniature connector (Microtech, Boothwyn, Pa.) prior to surgery. The implant assembly is affixed to the skull by the combination of the stainless steel EEG recording screws, cyanoacrylate applied between the implant connector and skull, and dental acrylic. Locomotor activity is monitored via a miniature transmitter (Minimitter PDT4000G, Philips Respironics, Bend, Oreg.) surgically placed into the abdomen. At least 3 weeks are allowed for recovery. Recording environment. Each rat is housed individually within a microisolator cage modified with an inserted polycarbonate filter-top riser to allow more vertical headroom. A flexible cable that minimally restricts movement is connected at one end to a commutator affixed to the cage top and at the other end to the animal's cranial implant. Each cage is located within separate, ventilated compartments of a stainless steel sleep-wake recording chamber. Food and water are available ad libitum and the ambient temperature is maintained at about 23±1° C. A 24-hr. light-dark cycle (LD 12:12) using fluorescent light is maintained throughout the study. Relative humidity averages approximately 50%. Animals are undisturbed for at least 30 hrs before and after each treatment. Study design and dosing. The vehicle (placebo, methylcellulose 15 centipoise 0.25% in water) or one of the test compound dose levels is administered orally at 1 mL/kg pseudo-randomly such that no rat receives the same treatment twice, and no rat receives more than two of the 8 treatments in any one study. Each rat is removed from its cage for about a minute to be weighed and treated. At least 6 days “washout” period precede and follow each treatment. Data collection. […]

[3] = molecular target: Adrenergic alpha2A (Homo sapiens, UniProt P08913); test: Adrenergic alpha2A binding
Sequence of Adrenergic alpha2A (P08913 whole entry): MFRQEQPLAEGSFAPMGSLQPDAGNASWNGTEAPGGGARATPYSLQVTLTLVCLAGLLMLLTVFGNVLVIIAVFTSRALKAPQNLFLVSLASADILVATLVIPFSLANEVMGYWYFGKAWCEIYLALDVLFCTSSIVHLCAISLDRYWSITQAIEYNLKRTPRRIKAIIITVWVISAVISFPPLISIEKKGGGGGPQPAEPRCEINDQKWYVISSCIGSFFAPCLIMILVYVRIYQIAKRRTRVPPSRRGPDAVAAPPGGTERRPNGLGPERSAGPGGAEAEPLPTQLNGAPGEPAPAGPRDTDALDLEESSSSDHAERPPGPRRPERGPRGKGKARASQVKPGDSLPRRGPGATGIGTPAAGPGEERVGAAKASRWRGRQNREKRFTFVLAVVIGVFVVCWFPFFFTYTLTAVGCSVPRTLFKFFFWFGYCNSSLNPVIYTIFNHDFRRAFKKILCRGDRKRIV
From the text: as §1

[4] = molecular target: 5-HT1D (Homo sapiens, UniProt P28221); test: 5-HT1D binding
Sequence of 5-HT1D (P28221 whole entry, species assumed): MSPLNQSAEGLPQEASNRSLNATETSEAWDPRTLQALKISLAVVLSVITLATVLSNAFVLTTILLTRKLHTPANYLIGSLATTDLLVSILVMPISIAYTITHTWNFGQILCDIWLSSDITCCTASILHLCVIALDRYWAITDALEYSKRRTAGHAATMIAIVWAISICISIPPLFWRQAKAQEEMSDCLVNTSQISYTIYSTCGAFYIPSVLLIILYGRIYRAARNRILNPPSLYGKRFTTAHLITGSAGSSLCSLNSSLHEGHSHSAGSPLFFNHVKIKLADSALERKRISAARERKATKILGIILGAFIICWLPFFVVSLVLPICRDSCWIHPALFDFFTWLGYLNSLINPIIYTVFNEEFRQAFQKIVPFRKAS
From the text: as §1

[5] = PO, 6 hour period after treatment

Sequence of Adrenergic alpha2C (P18825 whole entry): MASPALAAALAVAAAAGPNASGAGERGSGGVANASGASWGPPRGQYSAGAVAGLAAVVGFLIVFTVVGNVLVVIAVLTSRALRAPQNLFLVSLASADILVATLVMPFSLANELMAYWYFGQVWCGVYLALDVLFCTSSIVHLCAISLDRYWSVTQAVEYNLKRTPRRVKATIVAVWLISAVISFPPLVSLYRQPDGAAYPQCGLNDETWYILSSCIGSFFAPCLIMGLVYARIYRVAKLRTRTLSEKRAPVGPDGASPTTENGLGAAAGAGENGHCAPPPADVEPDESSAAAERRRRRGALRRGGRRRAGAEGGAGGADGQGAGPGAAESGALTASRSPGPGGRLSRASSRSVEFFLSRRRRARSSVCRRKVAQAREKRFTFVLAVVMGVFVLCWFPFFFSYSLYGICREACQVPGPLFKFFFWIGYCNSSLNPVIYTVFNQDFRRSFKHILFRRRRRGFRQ

Cc1cc2n(c1)Cc1cc(Cl)ccc1N=C2N1CCN(CC(C)(C)C(=O)O)CC1 [Example 13, 3-[4-(7-Chloro-2-methyl-5H-pyrrolo[2,1-c][1,4]benzodiazepin-11-yl)piperazin-1-yl]-2,2-dimethylpropanoic acid dihydrochloride]
Ki [1]: > 5.33 µM
Rebound Insomnia, Adj. Mean ([2]; 0.03 mg/kg PO): -0.7 min
REM inhibition, Adj. Mean ([2]; 0.03 mg/kg PO): 1.8 min
Cumulative NREM sleep, Adj. Mean ([2]; 0.03 mg/kg PO): 5.1 min
Cumulative Total sleep, Adj. Mean ([2]; 0.03 mg/kg PO): 7.3 min
Locomotor Activity Intensity, Adj. Mean ([2]; 0.03 mg/kg PO): −0.97 LMA counts per minute of EEG-defined wakefulness
Average Sleep Bout, Adj. Mean ([2]; 0.03 mg/kg PO): 1.1 n-fold
Longest Sleep Bout, Adj. Mean ([2]; 0.03 mg/kg PO): 1.3 n-fold
Rebound Insomnia, Adj. Mean ([2]; 0.10 mg/kg PO): -5.4 min
REM inhibition, Adj. Mean ([2]; 0.10 mg/kg PO): 1.0 min
Cumulative NREM sleep, Adj. Mean ([2]; 0.10 mg/kg PO): 5.9 min
Cumulative Total sleep, Adj. Mean ([2]; 0.10 mg/kg PO): 5.9 min
Locomotor Activity Intensity, Adj. Mean ([2]; 0.10 mg/kg PO): −0.35 LMA counts per minute of EEG-defined wakefulness
Average Sleep Bout, Adj. Mean ([2]; 0.10 mg/kg PO): 1.1 n-fold
Longest Sleep Bout, Adj. Mean ([2]; 0.10 mg/kg PO): 1.7 n-fold
Rebound Insomnia, Adj. Mean ([2]; 0.25 mg/kg PO): -1.9 min
REM inhibition, Adj. Mean ([2]; 0.25 mg/kg PO): 4.7 min
Cumulative NREM sleep, Adj. Mean ([2]; 0.25 mg/kg PO): 15.2 min
Cumulative Total sleep, Adj. Mean ([2]; 0.25 mg/kg PO): 17.7 min
Locomotor Activity Intensity, Adj. Mean ([2]; 0.25 mg/kg PO): −0.58 LMA counts per minute of EEG-defined wakefulness
Average Sleep Bout, Adj. Mean ([2]; 0.25 mg/kg PO): 1.2 n-fold
Longest Sleep Bout, Adj. Mean ([2]; 0.25 mg/kg PO): 1.7 n-fold
Rebound Insomnia, Adj. Mean ([2]; 0.50 mg/kg PO): -7.2 min
REM inhibition, Adj. Mean ([2]; 0.50 mg/kg PO): 5.8 min
Cumulative NREM sleep, Adj. Mean ([2]; 0.50 mg/kg PO): 22.2 min
Cumulative Total sleep, Adj. Mean ([2]; 0.50 mg/kg PO): 25.1 min
Locomotor Activity Intensity, Adj. Mean ([2]; 0.50 mg/kg PO): −0.14 LMA counts per minute of EEG-defined wakefulness
Average Sleep Bout, Adj. Mean ([2]; 0.50 mg/kg PO): 1.4 n-fold
Longest Sleep Bout, Adj. Mean ([2]; 0.50 mg/kg PO): 1.8 n-fold
Rebound Insomnia, Adj. Mean ([2]; 1 mg/kg PO): -9.7 min
REM inhibition, Adj. Mean ([2]; 1 mg/kg PO): 2.6 min
Cumulative NREM sleep, Adj. Mean ([2]; 1 mg/kg PO): 28.0 min
Cumulative Total sleep, Adj. Mean ([2]; 1 mg/kg PO): 30.6 min
Locomotor Activity Intensity, Adj. Mean ([2]; 1 mg/kg PO): −2.94 LMA counts per minute of EEG-defined wakefulness
Average Sleep Bout, Adj. Mean ([2]; 1 mg/kg PO): 1.6 n-fold
Longest Sleep Bout, Adj. Mean ([2]; 1 mg/kg PO): 2.5 n-fold
REM sleep inhibition (in words) ([2]; 3 mg/kg): without significant
cumulative NREM sleep time (in words) ([2]; 3 mg/kg): significantly increase
cumulative total sleep time (in words) ([2]; 3 mg/kg): significantly increase
inhibition of locomotor intensity (LMI) (in words) ([2]; 3 mg/kg): without significant
rebound insomnia (in words) ([2]; 3 mg/kg): without significant
Rebound Insomnia, Adj. Mean ([2]; 3 mg/kg PO): -7.8 min
REM inhibition, Adj. Mean ([2]; 3 mg/kg PO): 7.0 min
Cumulative NREM sleep, Adj. Mean ([2]; 3 mg/kg PO): 39.5 min
Cumulative Total sleep, Adj. Mean ([2]; 3 mg/kg PO): 42.3 min
Locomotor Activity Intensity, Adj. Mean ([2]; 3 mg/kg PO): −1.49 LMA counts per minute of EEG-defined wakefulness
Average Sleep Bout, Adj. Mean ([2]; 3 mg/kg PO): 1.8 n-fold
Longest Sleep Bout, Adj. Mean ([2]; 3 mg/kg PO): 2.7 n-fold
Rebound Insomnia, Adj. Mean ([2]; 10 mg/kg PO): 3.1 min
REM inhibition, Adj. Mean ([2]; 10 mg/kg PO): 2.9 min
Cumulative NREM sleep, Adj. Mean ([2]; 10 mg/kg PO): 51.8 min
Cumulative Total sleep, Adj. Mean ([2]; 10 mg/kg PO): 52.8 min
Locomotor Activity Intensity, Adj. Mean ([2]; 10 mg/kg PO): −0.11 LMA counts per minute of EEG-defined wakefulness
Average Sleep Bout, Adj. Mean ([2]; 10 mg/kg PO): 2.3 n-fold
Longest Sleep Bout, Adj. Mean ([2]; 10 mg/kg PO): 3.1 n-fold
Estimated efficacy dose (mg/kg), NREM accumulation = 30 min [2, 5]: 1.2 mg/kg
Estimated efficacy dose (mg/kg), average sleep bout (1.5-fold increase) [2, 5]: 0.77 mg/kg
Estimated efficacy dose (mg/kg), longest sleep bout (1.75-fold increase) [2, 5]: 0.21 mg/kg
Estimated efficacy dose (mg/kg), total sleep accumulation = 25 min [2, 5]: 0.58 mg/kg
Ki [3]: > 8.47 µM
Ki [4]: > 8.55 µM

Source: patent US8314092B2, “Substituted [(5H-pyrrolo[2,1-c][1,4]benzodiazepin-11-yl)piperazin-1-yl]-2,2-dimethylpropanoic acid compounds as dual activity H1 inverse agonists/5-HT2A antagonists” (Eli Lilly and Company, priority 2011, dated 2012)
